Data: publication PMC3705751 (Evidence-based Complementary and Alternative Medicine : eCAM, 2013)
Like-named read-outs stand apart in the source and are kept apart here.

Columns and labels:
[1] = biological target: NA of PR8 H1N1 influenza A virus (Influenza A virus, UniProt P03468); test: NA enzymatic activity inhibition, fluorometric MUNANA assay; format: biochemical, Influenza A/Puerto Rico/8/34 (H1N1)
From the text: Pandemic influenza A/Taiwan/CMUH/2009 (H1N1) (pandemic 2009 H1N1 virus), seasonal influenza A/Taiwan//CMUH/2007 (H1N1), 2009 (H1N1), and 2009 (H3N2) (seasonal 2007 H1N1, 2009 H1N1, and 2009 H3N2 influenza A viruses) were isolated in the clinical virology laboratory of China Medical University Hospital, Taiwan. Influenza A/Puerto Rico/8/34 (H1N1) (PR8 H1N1 virus) was kindly provided by Dr. Wei-Li Hsu (Institute of Microbiology and Public Health, National Chung-Hsing University). HA subtype of all influenza A viruses used was confirmed by RT-PCR or real-time RT-PCR with specific primers (see Supplementary Table 1 in the Supplementary Material available online at http://dx.doi.org/10.1155/2013/750803).
Fluorometric substrate 2′-(4-methylumbelliferyl)-α-D-N-acetylneuraminic acid (MUNANA; Sigma) was used to determine NA activity as described in a prior report. To determine NA activity of pandemic 2009 H1N1 and seasonal 2007 H1N1 viruses, serial 10-fold dilution of viruses (10^6 PFU/mL) was added to the wells of a 96-well plate, mixed with MUNANA solution at final concentration of 300 μM, and then incubated for 1 h at 37°C. Relative NA enzymatic activity was determined as the fluorescent intensity at a 360 nm excitation and a 460 nm emission wavelength (Multidetection Fluorescence-Luminescence Microplate Reader). […] Concentration of each extract or flavonoid showing 50% inhibitory effect (IC50) compared to the control with no inhibitor was determined by computer program (provided by John Spouge, National Institutes of Health).

[2] = tested on: seasonal 2007 H1N1 influenza A virus; test: microbe, parasite or virus in culture; format: cell-based; conditions: read-out: Plaque inhibition IC50 values, Seasonal 2007 H1N1
[3] = tested on: pandemic 2009 H1N1 influenza A virus; test: Plaque inhibition assay in MDCK cells; format: cell-based, Pandemic influenza A/Taiwan/CMUH/2009 (H1N1); conditions: 72 h, read-out: Plaque inhibition IC50 values, Pandemic 2009 H1N1
Cytotoxic assay (MTT) = conditions: dog, MDCK cells
in vitro = conditions: dog
[4] = flavonoids, MUNANA substrate, read-out: NA inhibition IC50 values, PR8 H1N1

NA of PR8 H1N1 influenza A virus, sequence (P03468 whole entry): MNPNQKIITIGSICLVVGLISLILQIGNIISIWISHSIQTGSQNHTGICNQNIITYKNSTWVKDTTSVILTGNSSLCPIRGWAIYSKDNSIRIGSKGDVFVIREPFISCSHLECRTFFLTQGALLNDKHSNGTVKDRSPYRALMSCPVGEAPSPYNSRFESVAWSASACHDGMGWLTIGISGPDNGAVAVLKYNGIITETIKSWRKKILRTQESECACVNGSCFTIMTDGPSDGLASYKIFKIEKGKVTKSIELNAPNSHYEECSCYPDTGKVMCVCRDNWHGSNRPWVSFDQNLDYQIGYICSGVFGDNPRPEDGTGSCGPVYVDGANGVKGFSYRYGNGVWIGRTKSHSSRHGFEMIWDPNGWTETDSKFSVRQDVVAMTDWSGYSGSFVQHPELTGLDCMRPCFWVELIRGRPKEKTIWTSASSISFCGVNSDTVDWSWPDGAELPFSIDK

Compound	IC50 [1]	IC50 ([2]; flavonoids, MDCK cells, 3 days)	IC50 [3]	CC50 at 48 h (Cytotoxic assay (MTT))	IC50 ([2]; Influenza A virus, MDCK, 72 h)	IC50 [1, 4]	CC50 (in vitro)	CC50 MDCK cells (MDCK cells)
O=c1cc(-c2ccc(O)cc2)oc2cc(O)cc(O)c12 [Apigenin]	81.3 µM	119.61 ± 0.032 µM	94.16 ± 0.047 µM	218.34 ± 0.11 µM	–	–	–	–
O=c1cc(-c2ccccc2)oc2cc(O)c(O)c(O)c12 [Baicalein]	0.181 µM	–	0.02 µM	0.045 ± 0.088 µM	0.018 µM	–	–	–
O=C(O)[C@H]1O[C@@H](Oc2cc3oc(-c4ccccc4)cc(=O)c3c(O)c2O)[C@H](O)[C@@H](O)[C@@H]1O [Baicalin]	–	–	> 0.01 µM	–	> 0.01 µM	2.75 µM	0.015 µM	–
O=c1cc(-c2ccccc2)oc2cc(O)cc(O)c12 [Chrysin]	–	–	> 200 µM	–	> 200 µM	132 µM	266.66 ± 0.077 µM	–
Chloroform	–	–	–	–	–	–	–	829.77 ± 0.009 µg/mL
MeOH	–	–	–	–	–	–	–	923.12 ± 0.017 µg/mL
